According to paper PMC9901178 (bioRxiv, 2023):

Assays:
[1] = system: HEK293/GC-A^+/AT1^+ cells; assay: Intracellular cGMP generation in HEK293/GC-A+/AT1+ cells; assay type: cell-based, human; settings: ANP 10^−8 M, ANGII 10^−8 M
PKC = PKC activity by western blot of phosphorylated pan-PKC substrates; assay type: cell-based, human; settings: Go6983 5 μM, HEK293/GC-A^+/AT1^+ cells

In the case of `COc1ccc2c(c1)c(C1=C(c3c[nH]c4ccccc34)C(=O)NC1=O)cn2CCCN(C)C` [Go6983], the “Rescue of the suppression effect of ANGII on ANP-induced cGMP” value ([1]; Go6983 5 μM) is reported as “significantly rescued” and the “PKC activity, phosphorylated status of pan-PKC substrates” value (PKC) is reported as “effectively inhibited PKC activity”.
For `CCCCC(=O)N(Cc1ccc(-c2ccccc2-c2nnn[nH]2)cc1)[C@H](C(=O)O)C(C)C` [valsartan], the “Rescue of the suppression effect of ANGII on ANP-induced cGMP” value ([1]; valsartan 1 μM) was “significantly rescued”.
